From patent US4122202A, “Amino-3H-isobenzofuranones N-substitutes and their therapeutic application” (Societe Cortial, priority 1975, dated 1978)
Read-outs that look alike come from different tables or passages of the source.

Experiments:
rats [1] = test: Ulcerous activity (modified method of Colot); assay type: in vivo, female EOPS rats
Procedure: Ulcerous activity was determined according to a modification of the method by Colot (Technical notions of general pharmacology, 1972) in the case of femal EOPS rats of approximately 150 g. The animals were left without absolutely any food, while the test products were orally administered on a daily basis in suspension in 2% Tween at a volume of 0.5 ml/100 g. The animals were killed under chloroform and the stomachs were removed. Ulcerous activity was established by means of an index taking into account the degree of ulceration and the percentage of animals effected.
In the table given below, a comparison is shown between the results obtained with niflumic acid and product No. 1.

[2] = Oral toxicity in mice (LDO, LD50); assay type: in vivo; settings: mouse, in vivo, gummy julep (No. 1 and 13 in Tween), 2 weeks observation
Procedure: (§1) This toxicity is estimated by the calculation of the lethal dose of 50 (LD 50) which determines the fatal dose of the substance for 50% of the animals tested. This determination was effected in accordance with a modification of the method by Litchfield and Wilcoxon (J. Pharmacol. Exp. Therap. 1949, 96, 99-113).
(§2) Swiss mice without specific pathogenic organisms were kept in air conditioned rooms 24 to 48 hours before the start of the tests. They were divided into batches of 5.male. and 5.female.. With the animals unfed for 24 hours, the substances were intragastically administered in suspension in 2% Tween 80 or in 6% gummy julep in a volume equivalent to 0.1 ml per 10 g of the weight of the animal.
(§3) They remained under observation for two weeks before being killed and subjected to an autopsy.
(§4) All products were administered in gummy julep except No. 1 and No. 13 which were administered in Tween. The analgesic activity were determined in mice by utilizing as a nociceptive agent, phenylbenzoquinone (PBQ) (modification of the method by Siegmund and co-workers Proc. Soc. Exp. Biol. Med. 1957, 95, 729-31). The process consists of seeking a possible protection for the mouse vis-a-vis abdominal twisting and stretching of the hind legs induced by the parental injection of PBQ. 25 minutes after having orally administered the products to be tested in suspension in 2% Tween 80 or in 6% gummy julep, the PBQ solution was injected and the mice were observed after 5 minutes during the following 5 minutes. For certain products, AD 50 is presented as a measure of activity.

mice [3] = test: Analgesic activity: protection against abdominal twisting induced by phenylbenzoquinone (PBQ); assay type: in vivo; settings: for ED50: Mus musculus, oral, read-out: AD 50 (the source's name)
Procedure: as §4, with “activity. […]” for “activity.”

rats [4] = test: Anti-inflammatory activity: carragenic test (carragenine-induced edema of the hind leg); assay type: in vivo, male rats; settings: for ED50: Rattus norvegicus, oral, read-out: ED 50
Procedure: All products were administered in gummy julep except No. 1 and No. 13 which were administered in suspension in Tween. The anti-inflammatory activity was determined by the carragenic test with male rats. Inflammation was induced by the injection of 0.1 ml of a 0.5% suspension of carragenine in a physiological serum into the muscular fasciculus of the metatarsal region of the hind leg of the animal. The substance to be tested was orally administered simultaneously with the carragenine. The edema was measured by phethysmography 1, 2, 3, 4, 5 and 6 hours after the administration of the carragenine.
**50 mg/kg No. 13 which were administered in suspension in Tween.

mice [5] = test: Oral toxicity in mice (LDO, LD50); assay type: in vivo; settings: gummy julep (No. 1 and 13 in Tween), 2 weeks observation
Procedure: as §1, §2, §3, §4

Compound	LD50 at 336 h [2]	ED50 (mice [3])	ED50 (rats [4]; 2H)	ED50 (rats [4]; 4H)	LDO (maximum dose which did not lead to any mortality) (mice [5])	% activity (inhibition of edema) (rats [4]; 200 mg/kg oral, 4H)	% activity (inhibition of edema) (rats [4]; 400 mg/kg oral, 4H)	further results
O=C(O)c1cccnc1Nc1cccc(C(F)(F)F)c1 [Niflumic acid]	~350 mg/kg	17 mg/kg	34 mg/kg	125 mg/kg	–	–	–	IA: Acute ulceration index (rats [1]; 83 mg/kg oral daily, 1 day): 8; IC: Ulceration index on the way of cicatrization (rats [1]; 83 mg/kg oral daily, 1 day): 380; IT: Total index (rats [1]; 83 mg/kg oral daily, 1 day): 388; IA: Acute ulceration index (rats [1]; 83 mg/kg oral daily, 3 days): 16; IC: Ulceration index on the way of cicatrization (rats [1]; 83 mg/kg oral daily, 3 days): 206; IT: Total index (rats [1]; 83 mg/kg oral daily, 3 days): 222
O=C1OC(Nc2ccc3c(c2)OCO3)c2ccccc21 (stereo not shown) [Product 1]	~2600 mg/kg	–	–	–	–	–	–	IA: Acute ulceration index (rats [1]; 250 mg/kg oral daily, 1 day): 0; IC: Ulceration index on the way of cicatrization (rats [1]; 250 mg/kg oral daily, 1 day): 1.5; IA: Acute ulceration index (rats [1]; 250 mg/kg oral daily, 3 days): 5; IC: Ulceration index on the way of cicatrization (rats [1]; 250 mg/kg oral daily, 3 days): 22
Cc1cc2c(cc1NC1OC(=O)c3ccccc31)OCO2 (stereo not shown) [Product 9]	> 2000 mg/kg	70 mg/kg	220 mg/kg	240 mg/kg	1000 to 2000 mg/kg	39%	60%	% activity (mice [3]; 100 mg/kg oral): 83%; % activity (inhibition of edema) (rats [4]; 200 mg/kg oral, 2H): 29%; % activity (inhibition of edema) (rats [4]; 400 mg/kg oral, 2H): 71%
CCCC1(CC)Oc2ccc(NC3OC(=O)c4ccccc43)cc2O1 (stereo not shown) [Product 6]	≥ 2000 mg/kg	420 mg/kg	–	–	1000 to 2000 mg/kg	22%	3%	% activity (mice [3]; 200 mg/kg oral): 25%
